US12018307B2, “Process for producing a glucuronide and genetically modified microorganisms useful in this process” (UTAH STATE UNIVERSITY, priority 2021, dated 2024)
≈ marks a conversion by molar mass, not a printed value. Where two headings read alike, the source gives them in different places. One block for each compound: values may come before it.

What was measured:
[1] = Determination of the water-solubility; format: physicochemical
Method: The purified product was tested for their water solubility as previously described (Wang et al. 2014). Purified 2′-hydroxyflavone glycoside was used to establish standard curves for quantifying water solubility. Briefly, the purified compound and the substrate were each mixed with 300 μL of distilled water in an Eppendorf tube at 25° C. An ultrasonic cleaner was used to facilitate the dissolution. After 30 min of sonication and centrifugation at 13,000×g for 10 min, supernatant of each sample was analyzed by HPLC to determine the compound concentrations in the solution. All samples were performed in triplicate and water solubility of each sample are expressed as the mean±standard deviation (SD).

[2] = system: human peripheral blood mononuclear cells; conditions: cited from earlier work

water solubility ([1]; distilled water, 25° C., 30 min sonication, HPLC, n=3, mean±SD): 34.8 ± 0.9 µg/mL (≈ 84 µM)
water solubility relative to the substrate 2′-hydroxyflavone ([1]; ratio glucuronide / substrate): around 14 times
SMILES: O=C(O)[C@H]1O[C@@H](Oc2ccccc2-c2cc(=O)c3ccccc3o2)[C@H](O)[C@@H](O)[C@@H]1O [hydroxyflavone-2′-O-β-D-glucuronide]

SMILES: Oc1ccc(C=Cc2cc(O)cc(O)c2)cc1 [resveratrol, reference compound]
cytotoxicity to human peripheral blood mononuclear cells ([2]; at 30 μM): has cytotoxicity

SMILES: O=C(O)[C@H]1O[C@@H](Oc2ccc(/C=C/c3cc(O)cc(O)c3)cc2)[C@H](O)[C@@H](O)[C@@H]1O [resveratrol-4′-O-β-D-glucuronide, Resveratrol-4′-O-β-D-glucuronide]
cytotoxicity to human peripheral blood mononuclear cells ([2]; at 300 μM): did not show any cytotoxicity

solubility at 30 min ([1]; thermodynamic from solid, distilled water, 25° C., 30 min sonication, HPLC, n=3, mean±SD): 2.5 ± 0.7 µg/mL (≈ 10.5 µM)
SMILES: O=c1cc(-c2ccccc2O)oc2ccccc12 [2′-hydroxyflavone, reference compound]
